Experimental findings from BindingDB's records for doi:10.1021/acs.jmedchem.5b01828 (University of Macau, 2016) are described below.

As a reminder, the Kd is a measure of binding affinity in units of concentration.

In assay [1] the target is T1, [Pyruvate dehydrogenase (acetyl-transferring)] kinase isozyme 1, mitochondrial (Homo sapiens, UniProt Q15118). Description: Competitive binding affinity to recombinant N-terminal 6xHis-SUMO-tagged human PDK1 (29 to 436 residues) expressed in Escherichia coli BL-21 assessed as Kd of ADP at 50 uM by isothermal titration calorimetric method (Rvb = 4.27 uM). (ITC needs no label: the signal is the heat of the interaction.)
T1 sequence (Q15118 whole entry, the tested form may be a part): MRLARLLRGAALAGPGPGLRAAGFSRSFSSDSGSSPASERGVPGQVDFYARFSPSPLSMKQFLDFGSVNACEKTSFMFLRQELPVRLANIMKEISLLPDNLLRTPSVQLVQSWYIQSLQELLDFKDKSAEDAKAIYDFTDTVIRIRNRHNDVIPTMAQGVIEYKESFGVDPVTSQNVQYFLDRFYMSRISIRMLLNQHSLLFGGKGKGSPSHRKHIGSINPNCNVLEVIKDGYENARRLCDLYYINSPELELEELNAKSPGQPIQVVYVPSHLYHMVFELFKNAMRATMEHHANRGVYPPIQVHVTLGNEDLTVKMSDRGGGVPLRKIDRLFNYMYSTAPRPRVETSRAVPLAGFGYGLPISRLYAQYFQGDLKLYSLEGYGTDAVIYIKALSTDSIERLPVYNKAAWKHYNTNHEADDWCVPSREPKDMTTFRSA

Assay [2] deals with T1, [Pyruvate dehydrogenase (acetyl-transferring)] kinase isozyme 1, mitochondrial. Description: Competitive binding affinity to recombinant N-terminal 6xHis-SUMO-tagged human PDK1 (29 to 436 residues) expressed in Escherichia coli BL-21 assessed as Kd of AZD7545 at 50 uM by isothermal titration calorimetric method (Rvb = 290.6 nM).

As for `O=C(Nc1ccc(Cl)c(C(F)(F)F)c1)C(Cl)Cl`, the Kd is 7.87 µM in assay [1] and 0.291 µM in assay [2].
